# Measured values taken from patent publication US4396543A.
# “And” between values parts separate entries of the source, which are not always exact repeats. Equal entries are not always repeated.
# What was measured:
# [1] = tested on: Staphylococcus aureus X1.1; test: agar-dilution MIC; type: cell-based; settings: two values = two experiments, 2 median of five, 19 median of three experiments
# Description: (§1) In Table VII activity is measured by the minimal inhibitory concentration (MIC), i.e. the lowest concentration of compound at which growth of the microorganism is inhibited by the test compound.
# [2] = tested on: Staphylococcus aureus V41; test: agar-dilution MIC; type: cell-based; settings: Staphylococcus aureus V41, penicillin-resistant strain; two values = two experiments; 2 median of five, 19 median of three
# Description: as §1
# [3] = tested on: Staphylococcus aureus X400; test: agar-dilution MIC; type: cell-based; settings: Staphylococcus aureus X400, methicillin-resistant strain; two values = two experiments; 2 median of five, 19 median of three
# Description: as §1
# [4] = tested on: Staphylococcus epidermidis EPI1; type: cell-based; settings: two values = two experiments, 2 median of five, 19 median of three
# [5] = tested on: Staphylococcus epidermidis EPI2; test: agar-dilution MIC; type: cell-based; settings: two values = two experiments, 2 median of five, 19 median of three
# [6] = tested on: Streptococcus pyogenes C203; test: agar-dilution MIC; type: cell-based; settings: two values = two experiments, 2 median of five, 19 median of three
# [7] = tested on: Streptococcus Group D X66; test: agar-dilution MIC; type: cell-based; settings: two values = two experiments, 2 median of five, 19 median of three
# Description: as §1
# [8] = tested on: Streptococcus Group D 9960; test: agar-dilution MIC; type: cell-based; settings: two values = two experiments, 2 median of five, 19 median of three
# Description: as §1
# [9] = toxicity test, LD50; settings: mouse, in vivo, iv; administered intravenously; read-out: LD50 (mg/kg) in Mice
# [10] = tested on: Staphylococcus aureus; test: in vivo experimental bacterial infection, ED50; settings: mice, two doses subcutaneously; two values = two experiments
# [11] = tested on: Streptococcus pyogenes; test: in vivo experimental bacterial infection, ED50; settings: mice; for ED50 Values Streptococcus pyogenes Oral: two doses orally; for ED50 Values Streptococcus pyogenes Subcutaneous: two doses subcutaneously, two values = two experiments
Compound,MIC [1],MIC [2],MIC [3],MIC [4],MIC [5],MIC [6],MIC [7],MIC [8],LD50 [9],ED50 Values Staphylococcus aureus Subcutaneous [10],ED50 Values Streptococcus pyogenes Oral [11],ED50 Values Streptococcus pyogenes Subcutaneous [11]
CCCCCCCCC(=O)N[C@@H](Cc1ccccc1)C(=O)N[C@@H](Cc1c[nH]c2ccccc12)C(=O)N[C@H](CC(N)=O)C(=O)N[C@@H](CC(=O)O)C(=O)N[C@@H]1C(=O)NCC(=O)N[C@@H](CCCN)C(=O)N[C@@H](CC(=O)O)C(=O)N[C@H](C)C(=O)N[C@@H](CC(=O)O)C(=O)NCC(=O)N[C@H](CO)C(=O)N[C@@H]([C@H](C)CC(=O)O)C(=O)N[C@@H](CC(=O)c2ccccc2N)C(=O)O[C@@H]1C [Compound 18],2 µg/mL,2 µg/mL,4 µg/mL,4 µg/mL,2 µg/mL,0.5 µg/mL,32 µg/mL,8 µg/mL,> 600 mg/kg,1.38 mg/kg × 2,184 mg/kg × 2,0.59 mg/kg × 2
CCCCCCCC(=O)N[C@@H](Cc1ccccc1)C(=O)N[C@@H](Cc1c[nH]c2ccccc12)C(=O)N[C@H](CC(N)=O)C(=O)N[C@@H](CC(=O)O)C(=O)N[C@@H]1C(=O)NCC(=O)N[C@@H](CCCN)C(=O)N[C@@H](CC(=O)O)C(=O)N[C@H](C)C(=O)N[C@@H](CC(=O)O)C(=O)NCC(=O)N[C@H](CO)C(=O)N[C@@H]([C@H](C)CC(=O)O)C(=O)N[C@@H](CC(=O)c2ccccc2N)C(=O)O[C@@H]1C [Compound 17],4 µg/mL,8 µg/mL,8 µg/mL,8 µg/mL,8 µg/mL,2 µg/mL,128 µg/mL,32 µg/mL,450 mg/kg,2.58 mg/kg × 2,> 200 mg/kg × 2,1.48 mg/kg × 2
CCCCCCCCCCCCC(=O)N[C@@H](Cc1ccccc1)C(=O)N[C@@H](Cc1c[nH]c2ccccc12)C(=O)N[C@H](CC(N)=O)C(=O)N[C@@H](CC(=O)O)C(=O)N[C@@H]1C(=O)NCC(=O)N[C@@H](CCCN)C(=O)N[C@@H](CC(=O)O)C(=O)N[C@H](C)C(=O)N[C@@H](CC(=O)O)C(=O)NCC(=O)N[C@H](CO)C(=O)N[C@@H]([C@H](C)CC(=O)O)C(=O)N[C@@H](CC(=O)c2ccccc2N)C(=O)O[C@@H]1C [Compound 21],0.5 µg/mL,0.5 µg/mL,2 µg/mL,2 µg/mL,2 µg/mL,0.125 µg/mL,1 µg/mL,0.25 µg/mL,,0.76 mg/kg × 2,> 200 mg/kg × 2,0.14 mg/kg × 2
CCCCCCCCCCCC(=O)N[C@H](Cc1ccccc1)C(=O)N[C@@H](Cc1c[nH]c2ccccc12)C(=O)N[C@H](CC(N)=O)C(=O)N[C@@H](CC(=O)O)C(=O)N[C@@H]1C(=O)NCC(=O)N[C@@H](CCCN)C(=O)N[C@@H](CC(=O)O)C(=O)N[C@H](C)C(=O)N[C@@H](CC(=O)O)C(=O)NCC(=O)N[C@H](CO)C(=O)N[C@@H]([C@H](C)CC(=O)O)C(=O)N[C@@H](CC(=O)c2ccccc2N)C(=O)O[C@@H]1C [Compound 1],0.5 µg/mL,0.5 µg/mL,1 µg/mL,2 µg/mL,1 µg/mL,0.125 µg/mL,1 µg/mL,0.5 µg/mL,250 mg/kg,1.4 mg/kg × 2 and 2.05 mg/kg × 2,> 200 mg/kg × 2,< 0.25 mg/kg × 2 and 0.21 mg/kg × 2
CCCCCCCCCCCC(=O)Nc1ccc(C(=O)N[C@@H](Cc2c[nH]c3ccccc23)C(=O)N[C@H](CC(N)=O)C(=O)N[C@@H](CC(=O)O)C(=O)N[C@@H]2C(=O)NCC(=O)N[C@@H](CCCN)C(=O)N[C@@H](CC(=O)O)C(=O)N[C@H](C)C(=O)N[C@@H](CC(=O)O)C(=O)NCC(=O)N[C@H](CO)C(=O)N[C@@H]([C@H](C)CC(=O)O)C(=O)N[C@@H](CC(=O)c3ccccc3N)C(=O)O[C@@H]2C)cc1 [Compound 4],4 µg/mL,,8 µg/mL,,,,,,> 300 mg/kg,< 5 mg/kg × 2,> 200 mg/kg × 2,18.8 mg/kg × 2
CCCCCC(=O)N[C@@H](Cc1c[nH]c2ccccc12)C(=O)NCCC[C@@H]1NC(=O)CNC(=O)[C@@H](NC(=O)[C@H](CC(=O)O)NC(=O)[C@@H](CC(N)=O)NC(=O)[C@H](Cc2c[nH]c3ccccc23)NC(=O)CCCCCCCCC(C)CC)[C@@H](C)OC(=O)[C@H](CC(=O)c2ccccc2N)NC(=O)[C@H]([C@H](C)CC(=O)O)NC(=O)[C@@H](CO)NC(=O)CNC(=O)[C@H](CC(=O)O)NC(=O)[C@@H](C)NC(=O)[C@H](CC(=O)O)NC1=O (stereo partly drawn) [Compound 29],,,1 µg/mL,,,,8 µg/mL,32 µg/mL,37.5 mg/kg,,> 200 mg/kg × 2,10.6 mg/kg × 2
CCCCCCCCCCC(=O)N[C@@H](Cc1ccccc1)C(=O)N[C@@H](Cc1c[nH]c2ccccc12)C(=O)N[C@H](CC(N)=O)C(=O)N[C@@H](CC(=O)O)C(=O)N[C@@H]1C(=O)NCC(=O)N[C@@H](CCCN)C(=O)N[C@@H](CC(=O)O)C(=O)N[C@H](C)C(=O)N[C@@H](CC(=O)O)C(=O)NCC(=O)N[C@H](CO)C(=O)N[C@@H]([C@H](C)CC(=O)O)C(=O)N[C@@H](CC(=O)c2ccccc2N)C(=O)O[C@@H]1C [Compound 20],0.5 µg/mL,0.5 µg/mL,2 µg/mL,2 µg/mL,2 µg/mL,0.125 µg/mL,4 µg/mL,2 µg/mL,400 mg/kg,1.25 mg/kg × 2,> 200 mg/kg × 2,0.35 mg/kg × 2
CCCCCCCCCCCCCC(=O)N[C@@H](Cc1ccccc1)C(=O)N[C@@H](Cc1c[nH]c2ccccc12)C(=O)N[C@H](CC(N)=O)C(=O)N[C@@H](CC(=O)O)C(=O)N[C@@H]1C(=O)NCC(=O)N[C@@H](CCCN)C(=O)N[C@@H](CC(=O)O)C(=O)N[C@H](C)C(=O)N[C@@H](CC(=O)O)C(=O)NCC(=O)N[C@H](CO)C(=O)N[C@@H]([C@H](C)CC(=O)O)C(=O)N[C@@H](CC(=O)c2ccccc2N)C(=O)O[C@@H]1C [Compound 22],0.5 µg/mL,1 µg/mL,2 µg/mL,4 µg/mL,4 µg/mL,0.25 µg/mL,1 µg/mL,0.5 µg/mL,,4.8 mg/kg × 2,> 200 mg/kg × 2,< 0.27 mg/kg × 2 and 0.36 mg/kg × 2
CCCCCCCCCCC(=O)N[C@@H](Cc1ccccc1)C(=O)NCCC[C@@H]1NC(=O)CNC(=O)[C@@H](NC(=O)[C@H](CC(=O)O)NC(=O)[C@@H](CC(N)=O)NC(=O)[C@@H](N)Cc2c[nH]c3ccccc23)[C@@H](C)OC(=O)[C@H](CC(=O)c2ccccc2N)NC(=O)[C@H]([C@H](C)CC(=O)O)NC(=O)[C@@H](CO)NC(=O)CNC(=O)[C@H](CC(=O)O)NC(=O)[C@@H](C)NC(=O)[C@H](CC(=O)O)NC1=O [Compound 26],8 µg/mL,> 128 µg/mL,> 128 µg/mL,> 128 µg/mL,> 128 µg/mL,1 µg/mL,> 128 µg/mL,32 µg/mL,,9.2 mg/kg × 2,> 200 mg/kg × 2,> 18 mg/kg × 2
